# Results taken from patent US20160317391A1, “MEDIA MILLING PROCESS FOR THE MANUFACTURE OF ACTIVE PHARMACEUTICAL INGREDIENTS IN PROPELLANTS” (MERCK SHARP & DOHME CORP., priority 2013, published 2016).
# Values joined by “and” are separate entries in the source; they are usually repeats but may differ in a detail not shown here. Identical values can stand only once.
# Tests used:
# [1] = Particle size distribution (X50, X90) before and after HFA-LabRAM media milling, […] particle size analyzer; type: physicochemical; conditions: for PSD after HFA Milling X50 / PSD after HFA Milling X90: 80% power; for particle size (X50) prior to HFA-based RAM milling: unmilled; for X50 after RAM-milling: grades ML001 and SV003
# Procedure: In a typical RAM based media milling process (see FIG. 1), API is added to a glass bottle along with Yttria zirconia (YTZ, diameters ranging from about 0.1 to about 2 mm) beads. Preferred bead sizes are from about 0.05 to about 5 mm. Another preferred bead size is from about 0.1 to about 2 mm. Other components that can be added to the API-bead mixture include stabilizers and surfactants that can augment the milling process. The ratio of the beads to that of the formulation components can be varied to suit the needs of particle size requirements. Particularly preferred ratios of beads to formulation components are from 40:1, 20:1, 15:1, 10:1 and 5:1. The bottle is crimp sealed and filled with appropriate amounts of either HFA227 or HFA134a (or a combination of both at varying ratios). The bottle is then loaded onto a RAM device and milled for a specified duration of time and at a specified power. Milling times include between about 5 minutes to about 300 minutes. Preferred milling times are from about 30 minutes to about 200 minutes and 60 minutes to about 120 minutes. Power includes about 10% to about 100% power. Preferred power range is about 40% to about 100%. Further, preferred power range is about 75% to about 100%. In most cases, the process can proceed to completion without stoppage. However, because of the ease and simplicity of the process, the process flow can be readily altered by stopping the media milling at intermittent time points for a known period of time before restarting the process again. This may be performed to cool the contents of the bottle at regular intervals. After completion, the bottle is allowed to revert to room temperature (if needed) to rapidly vent the HFA. After the process is finished the contents of the bottle (API, any excipients and/or additives, and the beads) are then added to a sieve of appropriate mesh size to separate the beads and the API. The milled API is collected and stored at 0% RH (in a nitrogen glove box) for further use.
# GP was milled utilizing LabRAM in both HFA134a and HFA227. The milling was accomplished at different parameters of solids ratio, milling duration and power. YTZ beads ([…]) were utilized.
# Lactose is an excipient that is FDA approved and is utilized as a carrier in dry powder inhalers. In one variation of the milling study, β-lactose (anhydrous) purchased from sigma-aldrich was subjected to HFA (HFA227) based media milling using LabRAM at a preset power of 80% and for a duration of 70 minutes. The ratio of YTZ beads ([…]) to β-lactose was maintained at 20:1. Particle size (X50) of β-lactose prior to HFA-based RAM milling was 153.6±7.4 μm. Upon subjecting the unmilled lactose to RAM-milling under the aforementioned conditions, the particle size (X50) of β-lactose was 3.47±0.01 μm.
# [2] = DSC thermograms of unmilled and HFA-LabRAM milled material (solid state); type: physicochemical; conditions: milled versus unmilled material
# Source text: With respect to the examples below, the milled API was subject to DSC and the thermograms compared to that of the neat unmilled API. The data from the thermograms clearly indicate that the RAM based HFA-milled API maintains its crystalline structure (FIG. 2B). It was also confirmed that the RAM milling process minimized the undesirable amorphous material generation during milling.
# [3] = HFA227, 60 mins, API:Bead ratio (w/w) 20, in µm (unit assumed)
# [4] = HFA227, 86 min, API:Bead ratio (w/w) 20, in µm (unit assumed)
# [5] = HFA227, 90 min, 5 min stop @45, 10 min stop, 90% power for additional 3 mins, API:Bead ratio (w/w) 20, in µm (unit assumed)
# [6] = HFA227, 90 min, 5 min stop @45, API:Bead ratio (w/w) 10, in µm (unit assumed)
# [7] = HFA227, 105 mins, API:Bead ratio (w/w) 20, in µm (unit assumed)
# [8] = unmilled GP, in µm (unit assumed)
compound,measurement,setting,value
"C[N+]1(C)CCC(OC(=O)C(O)(c2ccccc2)C2CCCC2)C1 (centres unmarked) [GP, glycopyrrolate bromide]","X50 after LabRAM milling, all cases","[1]; HFA134a and HFA227, different solids ratio, milling duration and power, YTZ beads",less than 3 μm
same,average X50 after LabRAM milling,"[1]; HFA134a, increased solids ratio",1.5 μm
same,PSD after HFA Milling X50,[1]; [3],3.49 ± 0.02
same,PSD after HFA Milling X90,[1]; [3],15.93 ± 0.14
same,PSD after HFA Milling X50,[1]; [4],1.7
same,PSD after HFA Milling X90,[1]; [4],4.53 ± 0.21
same,PSD after HFA Milling X50,[1]; [5],1.37 ± 0.13
same,PSD after HFA Milling X90,[1]; [5],3.67 ± 0.03
same,PSD after HFA Milling X50,[1]; [6],1.7 and 1.53 ± 0.06
same,PSD after HFA Milling X90,[1]; [6],3.87 ± 0.12 and 3.67 ± 0.06
same,PSD after HFA Milling X50,[1]; [7],2.62 ± .01
same,PSD after HFA Milling X90,[1]; [7],9.83 ± 0.01
same,particle size (X50) prior to HFA-based RAM milling,[1],ca. 51 μm
same,PSD before HFA Milling X50,[1]; [8],52.77 ± 1.55 and 52.77 ± 1.56 and 52.77 ± 1.57 and 52.77 ± 1.54
same,PSD before HFA Milling X90,[1]; [8],134.7 ± 9.10 and 134.7 ± 9.11 and 134.7 ± 9.12 and 134.7 ± 9.9
same,solid state after HFA-LabRAM milling (DSC),[2],no change in the polymorphic state
"C[N+]1(C)CCC(OC(=O)C(O)(c2ccccc2)C2CCCC2)C1.[Br-] (centres unmarked) [jet milled GP, glycopyrrolate bromide]",time within which X50 / particle size doubles,75% RH and 40° C.,≤ 6 h
same,particle size shown at 24 h (visual observation),"75% RH and 40° C., 24 h, visual observation, […]",10 μm
same,increase in the size of the API,"75% RH and 40° C., within 24 h",100 fold
OC[C@H]1O[C@@H](O[C@H]2[C@H](O)[C@@H](O)[C@H](O)O[C@@H]2CO)[C@H](O)[C@@H](O)[C@H]1O [β-lactose],particle size (X50) of the recovered product,"[1]; HFA134a, bead to lactose ratio 40:1, 60 minute duration",2.3 μm
same,particle size (X50) after RAM-milling,"[1]; HFA227, power 80%, 70 minutes, YTZ beads to β-lactose 20:1",3.47±0.01 μm
same,particle size (X50) prior to HFA-based RAM milling,[1],153.6±7.4 μm
same,solid state after HFA-LabRAM milling (DSC),[2],crystalline
same,solid state after HFA-LabRAM milling (DSC),[2]; listed as lactose,no glass transition
O.OC[C@H]1O[C@@H](O[C@H]2[C@H](O)[C@@H](O)C(O)O[C@@H]2CO)[C@H](O)[C@@H](O)[C@H]1O (some centres unmarked) [Lactose monohydrate],X50 after RAM-milling,"[1]; HFA134a, similar conditions",1.9 μm
same,X50 after RAM-milling,[1]; HFA227,less than 3 μm
"C[N+]1(C)CCC(OC(=O)C(O)(c2ccccc2)C2CCCC2)C1.[Br-] (centres unmarked) [HFA-LabRAM milled GP, glycopyrrolate bromide]",particle size (X50) at start of storage,"75% RH and 25° C. study, initial value",1.54 μm
same,particle size (X50) after storage,"75% RH and 25° C., within a span of 24 h",1.78 μm
same,increase in PSD,"75% RH and 40° C., within 20 h",0.5 μm
